According to paper PMC9688344, “[^225Ac]Ac-SibuDAB for Targeted Alpha Therapy of Prostate Cancer: Preclinical Evaluation and Comparison with [^225Ac]Ac-PSMA-617” (Cancers, 2022):

Tested on: immunocompetent FVB mice
Assay: Tolerability study in immunocompetent mice
Type: in vivo
Excerpt: Five- to six-week-old immunocompetent, female FVB mice were purchased from Charles River Laboratories (Sulzfeld, Germany). After an acclimatization period of at least 7 days, the mice (n = 5 per group) were intravenously injected with 30 kBq [^225Ac]Ac-SibuDAB or 30 kBq [^225Ac]Ac-PSMA-617 and additional mice (n = 7 per group) remained untreated as controls. Mice were monitored by measuring their body mass and potential signs of pain or unease three times a week (Supplementary Material: Section S7). The mice were euthanized on Day 10, Day 28 or on Day 56, respectively, and variable parameters were assessed from blood and tissue samples.
Hematological analysis was performed using blood samples taken by cardiac puncture immediately after euthanasia. Blood and bone marrow smears were prepared and stained using the Pappenheim protocol. The assessment was carried out by a board-certified veterinary anatomic pathologist (AnaPath Services GmbH, Liestal, Switzerland). Blood plasma parameters were determined in plasma after centrifugation of blood samples obtained shortly before euthanasia (Supplementary Material: Section S7).
Tissue sections of formalin-fixed paraffin-embedded (FFPE) spleen, salivary glands and kidneys were prepared and stained with hematoxylin and eosin (H&E) by AnaPath Services GmbH (Liestal, Switzerland). The tissues were analyzed by a board certified veterinary pathologist using a pre-defined scoring system (Supplementary Material: Section S7). […]
The percentage of radioligand bound to mouse or human plasma (A bound) was plotted against the molar ratios of MSA/HSA to radioligand and fitted with a nonlinear regression curve (specific binding with Hill slope, Bmax set to 100%) using GraphPad Prism software (version 8) to obtain the half maximum binding (B 50).
Results: The results are reported in the main article.
Purpose: A tolerability study with normal, immunocompetent FVB mice was con-ducted in order to assess potential side effects to the bone marrow, spleen, salivary glands and kidneys after the application of high activities of the 225Ac-labeled PSMA radioligands.
Methods: Monitoring Body Mass and Signs of Unease: Mice were monitored by meas-uring their body mass (BM) three times a week. The body masses were expressed as the relative body mass, defined as [BMx/BM0], where BMx is the body mass in grams on a given Day x and BM0 is the body mass in grams on Day 0. Endpoint criteria, defined as (i) >15% loss in body mass, (ii) signs of unease and pain or a combination thereof based on a scoring system, were not reached in this stu dy.
Hematology: Blood cell counts were determined in blood samples taken by cardiac puncture immediately after euthanasia and collected in EDTA tubes (Microvette® 100 K3 EDTA, Sarstedt, Germany). Leukocyte, lymphocyte, erythrocyte and thrombocyte counts as well as hemoglobin and hematocrit values were determined using a hematology ana-lyzer (VetScan HM5, Abaxis, United States). Blood smears were prepared on glass slides with cardiac blood. The bone marrow was collected from the femur, diluted in FCS/H2O (2:1 v/v) and smeared onto microscopy slides using a paintbrush. The slides were stained with a May Grünwald solution and subsequently with diluted Giemsa solution using the Pappenheim method and covered with coverslips using mounting medium (Pertex).
The assessment of potential morphological ch anges of the blood cells and counting of the subgroups of leukocytes was performed by a board-certified veterinary pathologist (Ana-Path Services GmbH, Liestal, Switzerland).
Histopathological Analysis: Spleen, salivary glands and kidneys were formalin-fixed and paraffin-embedded. Tissue sections were stained with hematoxylin & eosin (H&E) […]
Blood Plasma Parameters: Blood plasma parameters were determined in plasma ob-tained from centrifuged retrobulbar blood samples collected in lithium-heparin tubes (Mi-crovette® 200 LH, SARSTEDT). The concentrations of blood urea nitrogen (BUN), alkaline […]

`CC(C)Cc1ccc(C(C)C(=O)NC(CCN)C(=O)NCCCCC(NC(=O)CN2CCN(CC(=O)[O-])CCN(CC(=O)[O-])CCN(CC(=O)[O-])CC2)C(=O)NCC2CCC(C(=O)NC(Cc3ccc4ccccc4c3)C(=O)NCCCCC(NC(=O)NC(CCC(=O)O)C(=O)O)C(=O)O)CC2)cc1.[225Ac+3]` (stereo not shown) [[^225Ac]Ac-SibuDAB] was tested, and the “Salivary glands: Ductal hyperplasia with inflammatory cells, score average” value (Day 28, 30 kBq) was 0.0, the “Salivary glands: Hypertrophy acinar, sublingual, incidence” value (Day 28, 30 kBq) was 1 and the “Salivary glands: Hypertrophy acinar, sublingual, score average” value (Day 28, 30 kBq) was 1.0. The “Salivary glands: Mononuclear cell foci, incidence” value (Day 28, 30 kBq) was 3, the “Salivary glands: Mononuclear cell foci, score average” value (Day 28, 30 kBq) was 1.0 and the “Salivary glands: Necrosis, multifocal, serous acinar cells, incidence” value (from here on “Salivary glands: Necrosis … incidence”) (Day 28, 30 kBq) was “completely absent”. The “Salivary glands: Necrosis, multifocal, serous acinar cells, score average” value (Day 28, 30 kBq) was 0.0, the “Salivary glands: Vacuolation, incidence” value (Day 28, 30 kBq) was 0 and the “Salivary glands: Vacuolation, score average” value (Day 28, 30 kBq) was 0.0. The “Spleen: Extramedullary hematopoiesis, incidence” value (Day 28, 30 kBq) was 5, the “Spleen: Extramedullary hematopoiesis, score average” value (Day 28, 30 kBq) was 1.8 and the “Spleen: Hyperplasia, lymphoid, incidence” value (Day 28, 30 kBq) was 5. The “Spleen: Hyperplasia, lymphoid, score average” value (Day 28, 30 kBq) was 1.2, the “Spleen: Pigment, incidence” value (Day 28, 30 kBq) was 5 and the “Spleen: Pigment, score average” value (Day 28, 30 kBq) was 2.0. For the same compound, the “Salivary glands: Necrosis … incidence” value (Day 28, 30 kBq, listed as [225Ac]Ac-SibuDAB) was 0, the “Bone marrow % E” value (Day 28, mouse M1) was 40% and the “Bone marrow % M” value (Day 28, mouse M1) was 60%. For the same compound, the “Bone marrow % E” value (Day 28, mouse M2) was 50%, the “Bone marrow % M” value (Day 28, mouse M2) was 50% and the “Bone marrow % E” value (Day 28, mouse M3) was 40%. For the same compound, the “Bone marrow % M” value (Day 28, mouse M3) was 60%, the “Bone marrow % E” value (Day 28, mouse M4) was 50% and the “Bone marrow % M” value (Day 28, mouse M4) was 50%. For the same compound, the “Bone marrow % E” value (Day 28, mouse M5) was 50%, the “Bone marrow % M” value (Day 28, mouse M5) was 50% and the “Kidneys: Hyperplasia/hypertrophy, tubular, incidence” value (Day 56, 30 kBq) was 1. The “Kidneys: Hyperplasia/hypertrophy, tubular, score average” value (Day 56, 30 kBq) was 1.0, the “Kidneys: Hypertrophy/hyperplasia, tubular with ectasia, incidence” value (Day 56, 30 kBq) was 0 and the “Kidneys: Hypertrophy/hyperplasia, tubular with ectasia, score average” value (Day 56, 30 kBq) was 0.0. The “Kidneys: Inflammatory cells, interstitium, incidence” value (Day 56, 30 kBq) was 1, the “Kidneys: Inflammatory cells, interstitium, score average” value (Day 56, 30 kBq) was 1.0 and the “Kidneys: Inflammatory cells, pelvis, incidence” value (Day 56, 30 kBq) was 1. For the same compound, the “Kidneys: Inflammatory cells, pelvis, score average” value (Day 56, 30 kBq) was 1.0, the “Kidneys: Mineralization, papilla, incidence” value (Day 56, 30 kBq) was 0 and the “Kidneys: Mineralization, papilla, score average” value (Day 56, 30 kBq) was 0.0. For the same compound, the “Kidneys: Tubular basophilia, incidence” value (Day 56, 30 kBq) was 2, the “Kidneys: Tubular basophilia, score average” value (Day 56, 30 kBq) was 1.0 and the “Salivary glands: Ductal hyperplasia with inflammatory cells, incidence” value (Day 56, 30 kBq) was 0. The “Salivary glands: Ductal hyperplasia with inflammatory cells, score average” value (Day 56, 30 kBq) was 0.0, the “Salivary glands: Hypertrophy acinar, sublingual, incidence” value (Day 56, 30 kBq) was 0 and the “Salivary glands: Hypertrophy acinar, sublingual, score average” value (Day 56, 30 kBq) was 0.0. For the same compound, the “Salivary glands: Mononuclear cell foci, incidence” value (Day 56, 30 kBq) was 2, the “Salivary glands: Mononuclear cell foci, score average” value (Day 56, 30 kBq) was 1.0 and the “Salivary glands: Necrosis … incidence” value (Day 56, 30 kBq) was 0. The “Salivary glands: Necrosis, multifocal, serous acinar cells, score average” value (Day 56, 30 kBq) was 0.0, the “Salivary glands: Vacuolation, incidence” value (Day 56, 30 kBq) was 0 and the “Salivary glands: Vacuolation, score average” value (Day 56, 30 kBq) was 0.0. The “Spleen: Extramedullary hematopoiesis, incidence” value (Day 56, 30 kBq) was 5, the “Spleen: Extramedullary hematopoiesis, score average” value (Day 56, 30 kBq) was 1.8 and the “Spleen: Hyperplasia, lymphoid, incidence” value (Day 56, 30 kBq) was 0. The “Spleen: Hyperplasia, lymphoid, score average” value (Day 56, 30 kBq) was 0.0, the “Spleen: Pigment, incidence” value (Day 56, 30 kBq) was 5 and the “Spleen: Pigment, score average” value (Day 56, 30 kBq) was 2.0. The “Bone marrow % E” value (Day 56, mouse M1) was 40%, the “Bone marrow % M” value (Day 56, mouse M1) was 60% and the “Bone marrow % E” value (Day 56, mouse M2) was 30%. For the same compound, the “Bone marrow % M” value (Day 56, mouse M2) was 70%, the “Bone marrow % E” value (Day 56, mouse M3) was 40% and the “Bone marrow % M” value (Day 56, mouse M3) was 60%. For the same compound, the “Bone marrow % E” value (Day 56, mouse M4) was 40%, the “Bone marrow % M” value (Day 56, mouse M4) was 60% and the “Bone marrow % E” value (Day 56, mouse M5) was 40%. The “Bone marrow % M” value (Day 56, mouse M5) was 60%.
